Data on six substances can be found in article PMC12168616, “Machine Learning‐Assisted Prediction and Generation of Antimicrobial Peptides” (Small Science, 2025).

Ends that are not written are not given here.

Assay [1] has as its system ESKAPE pathogens. In words: MIC assay, bacteria, strain of the six not assignable or not specified. Particulars: one of the six ESKAPE strains, left to right order; MHB II, 18–24 h, 37 °C, OD600 nm, ≥90% inhibition, duplicates. Format: cell-based. An excerpt: (§1) To evaluate the susceptibility of the different peptide sequences against clinical isolates of various bacterial pathogens, we used the minimum inhibitory concentration (MIC) assay. The MIC measures the efficacy of peptides in inhibiting bacterial growth. The specific MIC values of various peptides against Enterococcus […] ATCC19433, Staphylococcus aureus ATCC25923, Klebsiella pneumoniae ATCC43816, Acinetobacter baumannii AB5075, Pseudomonas aeruginosa PAO1, and Enterobacter species ATCC13048 were determined by measuring optical density at 600 nm (OD600 nm). […] The growth inhibition curves were used to estimate the MIC values.
(§2) Bacteria: The MIC was the lowest concentration of a drug, which inhibited the visible growth of a bacteria and could be determined by reading the absorption at 600 nm (OD600 nm) using a spectrophotometer. The peptides were subjected to antibacterial testing against gram‐positive and gram‐negative pathogens. All the ESKAPE pathogens (E. faecalis ATCC19433, S. aureus ATCC25923, K. pneumoniae ATCC43816, A. baumannii AB5075, P. aeruginosa PAO1, and E. aerogenes ATCC13048) were inoculated from nutrient agar plates to obtain a bacterial suspension by incubating the colony of bacteria in a flask containing 10 mL of Mueller Hinton broth II (MHB) at 37 °C for 24 h with gentle shaking (75 rpm). The bacterial suspensions were then diluted in MHB to 1 × 10^6 colony‐forming units (CFU) of bacteria mL^−1. Next, using serial dilutions in 96‐well plates, different concentrations of each peptide from 1.5–400 μM were prepared. 100 μL of peptide solutions at final concentration ranging between 0.75–200 μM were then added to a 96‐well plate containing 100 μL of diluted bacterial suspension. After 18–24 h incubation at 37 °C, the turbidity of the samples was observed, and the optical density of bacteria was measured using OD600 nm. All assays were performed in duplicates. The MICs were calculated as ≥90% inhibition of bacteria growth compared to the positive control wells.

For assay [2], the system named is E. Faecalis ATCC19433. Format: cell-based, Enterococcus faecalis. Particulars: ATCC19433.
From the text: as §1, §2

The test system of assay [3] is P. Aeruginosa PAO1. Format: cell-based, Pseudomonas aeruginosa. Particulars: PAO1.
From the text: as §1, §2

The subject of assay [4] is E. Aerogenes ATCC13048. Format: cell-based, Enterobacter aerogenes. Particulars: ATCC13048.
From the text: as §1, §2

In assay [5] the test system is A. Baumannii AB5075. Format: cell-based, Acinetobacter baumannii. Particulars: AB5075.
From the text: as §1, §2

Assay [6] has as its system S. Aureus ATCC25923. Format: cell-based, Staphylococcus aureus. Particulars: ATCC25923.
From the text: as §1, §2

Assay [7] relates to K. Pneumoniae ATCC43816. Format: cell-based, Klebsiella pneumoniae. Particulars: ATCC43816.
From the text: as §1, §2

As for “PKWHKNKMFKFKRKF [MLWH98, peptide generated using algorithm, list 2]”, the “MIC, Table S7, 4th value printed in the line (strain column cannot be told)” value (from here on “MIC, Table S7, 4th value printed”) in assay [1] is 200 µM.

Regarding “PSKYAKIAIKFHKQI [MLWH61, peptide generated using algorithm, list 2]”, in assay [1], the “MIC, Table S7, 4th value printed” value stood at 50 µM.

On to “QGWIKIILPHIRYIK [MLWH57, peptide generated using algorithm, list 2]”, for which, in assay [1], the “MIC, Table S7, 4th value printed” value was 25 µM.

With TKFGQKVIKLIAQFL-NH2 [MLWH 24], the “MIC E. Faecalis ATCC19433” value in assay [2] stood at 6 µM. The “MIC P. Aeruginosa PAO1” value in assay [3] came to 25 µM. For the same substance, the “MIC E. Aerogenes ATCC13048” value in assay [4] is 6 µM. Further, the “MIC A. Baumannii AB5075” value in assay [5] is listed as 3 µM. Moreover, in assay [6], the “MIC S. Aureus ATCC25923” value is 12.5 µM. The “MIC K. Pneumoniae ATCC43816” value in assay [7] was found to be 6 µM.

TLVKAVAHIAKLLKF-NH2 [MLWH 22]: in assay [2], the “MIC E. Faecalis ATCC19433” value was 100 µM. The “MIC P. Aeruginosa PAO1” value in assay [3] was found to be 200 µM. Also, the “MIC E. Aerogenes ATCC13048” value in assay [4] turned out to be 200 µM. The “MIC A. Baumannii AB5075” value in assay [5] was determined as 12.5 µM. In addition, in assay [6], the “MIC S. Aureus ATCC25923” value stood at 100 µM. Also, in assay [7], the “MIC K. Pneumoniae ATCC43816” value turned out to be 50 µM.

In the case of “VIYSIGLRIFNKIRP [MLWH99, peptide generated using algorithm, list 2]”, the “MIC, Table S7, 4th value printed” value in assay [1] is 200 µM.
